Assays:
[1] = tested on: Myd88; experiment: Mice study #2: Myd88 immunoblotting of gingival samples; type: in vivo, C57BL/6 mice; conditions: three mice per group
Experimental: Western blot analysis. Cells were seeded in 60 mm plates with a density of 5×10^5 cells per plate and washed briefly with Dulbecco's phosphate-buffered saline (Gibco, Waltham, MA, USA). Whole cell lysates were prepared using RIPA lysis buffer containing protease inhibitor cocktail (Sigma-Aldrich). Total protein concentration was determined using the BCA reagent (Pierce, Waltham, MA, USA). 20 μg of total protein were resolved on sodium dodecyl sulfate-polyacrylamide gel electrophoresis and transferred to polyvinylidenedifluoride membrane and immunoblotted. The blots were incubated for 1 h in 1% bovine serum albumin (BSA) (Sigma-Aldrich) to block the non-specific bindings followed by over-night incubation in primary antibodies (MyD88 and pP65 from Cell Signaling Technology, and human LITAF ThermoFisher Sigma) at 4° C. on shaker. Next day, blots were washed for three times (10 min each) in Tris-buffered saline containing 1% Tween20 (TBST) followed by incubation with secondary antibody (Goat anti-rabbit IgG HRP) with 1:10,000 dilution for 1 h. […] The band intensities were quantified using software ImageJ (NIH, USA) and relative protein levels were normalized by β-actin (Cell Signaling). […] The band intensities were measured by the software ImageJ (NIH, USA), and relative protein levels were normalized by β-actin.

[2] = tested on: TLR4; experiment: FACS of surface TLR4 on oral keratinocytes; type: cell-based, human; conditions: LPS (10 μg/ml), Phe (10 μg/ml), different concentration of folic acid, 24 hours
Experimental: Flow cytometry. NOKSI cells were seeded in 100 mm plates with a density of 1×10^6 cells per plate. Cells were treated with drugs, LPS, and folic acid alone or in combination. After NOKSI were detached using Corning Cell Lifter (Corning) and 10 mM EDTA in PBS, the cells were washed with FACS buffer (PBS containing 1% BSA [Sigma] and 2 mM EDTA). Cells were stained by immunofluorescence for CD282 (TLR2) and CD284 (TLR4). Fluorescent labeled antibodies at a dilution of 1:1000 in staining buffer with 2% FBS in PBS were added and incubated for 30 min in dark on ice. Cells were centrifuged and washed thrice in staining buffer and passed through a 70 μm cell strainer before data acquisition. Data analysis was performed using FlowJo (TreeStar, Ashland, OR, USA). All incubations were performed on ice.
Oral Keratinocytes Cells were treated with only LPS (10 μg/ml) for 24 hours. […] Cells were treated with LPS (10 μg/ml) and Phe (10 μg/ml) for 24 hours. […] Cells were treated with LPS (10 μg/ml), Phe (10 μg/ml), and FA ([…]) for 24 hours. […] FIG. 16.

[3] = tested on: Collagen type I alpha 1 (Col1a1); experiment: Collagen (Col1a1) expression in Human Oral Fibroblasts, QPCR; type: cell-based; conditions: HOF treated with conditioned media from Oral Keratinocytes containing LPS, CSA, Phenytoin or Folic acid (10 μg/ml), 24 hours; p<0.05
Experimental: Cell Culture. Normal human oral keratinocytes (NOKSI) and fibroblast (HOF) cells were maintained in Dulbecco […] Eagle's medium (Sigma-Aldrich, St. Louis, MO, USA) supplemented with 10% fetal bovine serum (Atlas Bio-logicals, Fort Collins, CO, USA) and 100 units/mL penicillin and 100 μg/mL streptomycin (LifeTechnologies, Carlsbad, CA, USA). Cells were grown in incubator at 37° C. in a humidified chamber with 5% CO2.
Human Oral Fibroblasts (HOF) cells were seeded in 60 mm plates with a density of 2.5×10^4/cm^2 and treated with condition (CM) media collected from Oral Keratinocytes containing LPS (10 μg/ml), CSA (10 μg/ml), Phenytoin (10 μg/ml), or Folic acid (10 μg/ml) and incubated for 24 hours. The Collagen type I alpha 1 (Col1a1) gene expression was determined by QPCR. HOF cells were treated with rTGF-β, SB-431542 (SB), rTNF-α, or TNF-α inhibitor (TNF-α inh). Quantitative real-time PCR results showing the expression of Col1a1 in HOF cells after the treatment. (p<0.05).

Nc1nc2ncc(CNc3ccc(C(=O)N[C@@H](CCC(=O)O)C(=O)O)cc3)nc2c(=O)[nH]1 [folic acid]
Myd88 expression, disease group relative to control and folic acid treatment group [1]: higher Myd88 expressions compared to the control and treatment group
TLR4 receptor on the cell surface [2]: do not alter
Collagen type I alpha 1 (Col1a1) gene expression [3]: reduces the collagen expression
